{"source": "patent US6974806B2", "about": "“Lipid-rich plaque inhibitors” (Takeda Pharmaceutical Company Limited, priority 2000, dated 2005)", "key": {"[1]": {"tested_on": "male apo-lipoprotein E deficient mouse", "experiment": "Experiment 1: plaque regression, % lesion area of aorta (oil red O) in apoE deficient mouse", "type": "in vivo", "details": "arteriosclerotic diet 8 weeks, then 27 mg/kg/day mixed with normal diet, 9th to 12th week, control 31%, p<0.01", "from_the_text": "[Method] […] Subsequently, each of only CE-2 powder, which is a normal diet, (control group, number of animals=8) and CE-2 powder supplemented with Compound A (number of animals=8) was given ad libitum during the period from the 9th week to the 12th week. Each animal was sacrificed by decapitation 12 weeks after initiation of the experiment, the vessel from the aortic arch to the femoral bifurcation was isolated and opened in the direction of the vascular axis, stained with oil red O (Sigma Aldrich Japan), photographed closely using a medical Nikkor (NIKON), and the photograph was scanned using a scanner (GT-6000, EPSON) and the image was processed using Adobe Photoshop. Thus, the image of the vessel was trimmed and the red color was extracted and modified into a two-tone gradation.\nThe two-tone image was subjected to an NIH image (National Institute of Health) to count pixels, whereby calculating the % lesion area based on the entire surface area of the internal wall of the vessel."}, "[2]": {"tested_on": "male apo-lipoprotein E deficient mouse", "experiment": "Experiment 2: plaque regression, % lesion area and aortic cholesteryl ester content in apoE KO mouse", "type": "in vivo", "details": "arteriosclerotic diet 8 weeks, then normal diet with 30 mg/kg/day oral for 4 weeks", "description": "(§1) [Results] The lesion (plaque) area based on the vascular internal surface area was 31% in the group fed only the normal diet after 9th week. […] Experiment 2 [Method] […] Subsequently, from the 9th week to the 12th week, Compound B (0.5% methyl cellulose suspension: at 30 mg/kg/day) was administered orally, during the period only CE-2 powder, which is a normal diet, was given. The control group was maintained with only CE-2 diet. Each animal was sacrificed by decapitation 12 weeks after initiation of the experiment, the vessel from the aortic arch to the femoral bifurcation was isolated and opened in the direction of the vascular axis, stained with oil red O (Sigma Aldrich Japan), and subjected to an image analysis similarly to Experiment 1 to calculate the % lesion area based on the entire vascular internal wall area. The vessel specimen after the image analysis was homogenized in saline, and the amount of cholesteryl ester content in the aorta was measured in accordance with the method by Hara and Radin (Lipid Extract of tissues with a low-Toxicity solvent, Anal. Biochem., 90:420-426, 1978), that is, from the aorta stained with the oil red O was extracted the lipid by a glass homogenizer with hexane:isopropyl alcohol (3:2) and centrifuged. Subsequently, the supernatant was recovered and evaporated to dryness, and then dissolved in TESIT: dioxane (1:1). From this solution, its total cholesterol content (Cholesterol C test, WAKO) and the free cholesterol content (Free Cholesterol C test, WAKO) were examined. The data obtained were corrected for the wet weight of the aorta. The cholesteryl ester content (CE) was obtained by subtracting the free cholesterol content from the total cholesterol content. Since the sample, which was extracted with hexane:isopropyl alcohol and then evaporated to dryness, contained the oil red O which interferes with the absorption wavelength for the cholesterol measurement, the cholesterol content was calculated for each sample by subtracting the blank level (absorbance of oil red O in sample). [Results]"}, "[3]": {"tested_on": "male apo-lipoprotein E deficient mouse", "experiment": "Experiment 3: plaque regression, % lesion area and aortic cholesteryl ester content in apoE KO mouse", "type": "in vivo", "details": "arteriosclerotic diet 8 weeks", "description": "as §1\n[Method] […] The control group was maintained with only CE-2 diet. Each animal was sacrificed by decapitation 12 weeks after initiation of the experiment, the vessel from the aortic arch to the femoral bifurcation was isolated and opened in the direction of the vascular axis, stained with oil red O (Sigma Aldrich Japan), and subjected to an image analysis similarly to Experiment 1 to calculate the % lesion area based on the entire vascular internal wall area. The vessel specimen after the image analysis was homogenized in saline, and the amount of cholesteryl ester content in the aorta was measured by an enzymatic method similarly to Experiment 2 described above. [Results]"}}, "data": [{"compound": "COc1cccc(OC)c1NC(=O)Cc1c(-c2ccccc2C)c2cc(Cl)ccc2oc1=O", "note": "[Compound A, 2-[6-chloro-2-oxo-4-(2-methylphenyl)-2H-chromen-3-yl]-N-(2,6-dimethoxyphenyl)acetamide]", "values": [{"measurement": "lesion (plaque) area based on the vascular internal surface area", "setting": "[1]", "result": 15, "unit": "%"}]}, {"compound": "COc1cccc(OC)c1NC(=O)Nc1oc2cc3c(cc2c1-c1ccccc1C)CCC3", "note": "[Compound B, N-(2,6-dimethoxyphenyl)-N′-[3-(2-methylphenyl)-6,7-dihydro-5H-indeno[5,6-b]furan-2-yl]urea]", "values": [{"measurement": "aortic cholesteryl ester content", "setting": "[2]; apoE KO mice, control 9.42", "result": 4.76, "unit": "µg/mg"}, {"measurement": "% lesion area", "setting": "[2]; apoE KO mice, control 22.6%", "result": 16.9, "unit": "%"}, {"measurement": "% lesion area", "setting": "[2]; apoE KO mouse, n = 4", "result": "16.9 ± 1.6", "unit": "%"}, {"measurement": "aortic cholesteryl ester content", "setting": "[2]; apoE KO mouse, n = 4, P < 0.05% (Dunnett's test)", "result": "4.76 ± 0.46", "unit": "µg/mg"}]}, {"compound": "N-(2,6-dimethoxyphenyl)-N′-[3-(2-methylphenyl)-6,7-dihydro-5H-indeno[5,6-b]furan-2-yl]urea [Compound B]", "values": [{"measurement": "aortic cholesteryl ester content", "setting": "[3]; apoE KO mouse, then normal diet with 10 mg/kg/day oral (b869 says) for 4 weeks, n = 10", "result": "5.30 ± 0.37", "unit": "µg/mg"}, {"measurement": "% lesion area", "setting": "[3]; apoE KO mouse, then normal diet with 10 mg/kg/day oral (b869 says) for 4 weeks, n = 10, P < 0.05% (Dunnett's test)", "result": "23.3 ± 1.8", "unit": "%"}]}, {"compound": "O=C(Cc1c(-c2ccccc2)c2cc3c(cc2oc1=O)CCC3)Nc1ccc(Cl)cc1C(F)(F)F", "note": "[Compound C, N-(4-chloro-2-trifluoromethylphenyl)-2-(2-oxo-4-phenyl-2,6,7,8-tetrahydrocyclopenta[g]chromen-3-yl)acetamide]", "values": [{"measurement": "aortic cholesteryl ester content", "setting": "[3]; apoE KO mice, then normal diet oral for 4 weeks (method: 10 mg/kg/day), control 6.83", "result": 5.3, "unit": "µg/mg"}, {"measurement": "% lesion area", "setting": "[3]; apoE KO mice, then normal diet oral for 4 weeks (method: 10 mg/kg/day), control 31.2%", "result": 23.3, "unit": "%"}, {"measurement": "melting point", "result": "198 to 200", "unit": "°C"}]}, {"compound": "O=C(Cc1c(-c2ccccc2)c2cc(Cl)c(CO)cc2oc1=O)Nc1ccc(Cl)cc1C(F)(F)F", "note": "[Example 87]", "values": [{"measurement": "melting point", "result": "220 to 222", "unit": "°C"}]}, {"compound": "CC(C)c1cccc(C(C)C)c1NC(=O)Cc1c(-c2ccccc2)c2cc(Cl)c(Cl)cc2oc1=O", "note": "[Example 39]", "values": [{"measurement": "melting point", "result": "289 to 290", "unit": "°C"}]}]}
